According to patent US20250215013A1, “SUBSTITUTED TRICYCLIC COMPOUNDS AS PARP INHIBITORS AND THE USE THEREOF” (IMPACT THERAPEUTICS (SHANGHAI), INC., priority 2022, published 2025):

test system: MDA-MB-436 cells; experiment: Growth inhibition assay against BRCA mutant human breast cancer MDA-MB-436 cell line (CCK-8); assay type: cell-based; conditions: Homo sapiens, MDA-MB-436, […], proliferation of MDA-MB-436 cells, 7 days

SMILES	IC50 [nM]
CNC(=O)c1ccc(N2CCN(Cc3ccc4c([nH]c(=O)n5ccnc45)c3F)CC2)c(C)n1 [Example 50, 8-((4-(2-methyl-6-(methylcarbamoyl)pyridin-3-yl)piperazin-1-yl)methyl)-7-fluoroimidazo[1,2-c]quinazolin-5(6H)-one]	23.6
CNC(=O)c1ccc(N2CCN(Cc3ccc4c(c3)[nH]c(=O)c3n[nH]cc34)CC2)c(C)n1 [Example 70, 7-((4-(2-methyl-6-(methylcarbamoyl)pyridin-3-yl)piperazin-1-yl)methyl)-2,5-dihydro-4H-pyrazolo[3,4-c]quinolin-4-one]	28.9
CNC(=O)c1ccc(N2CCN(Cc3ccc4c([nH]c(=O)c5cn(C)nc54)c3F)CC2)c(C)n1 [Example 88, 7-((4-(2-methyl-6-(methylcarbamoyl)pyridin-3-yl)piperazin-1-yl)methyl)-6-fluoro-2-methyl-2,5-dihydro-4H-pyrazolo[4,3-c]quinolin-4-one]	21.7
CNC(=O)c1ccc(N2CCN(Cc3ccc4c([nH]c(=O)c5cn(C)nc54)c3F)CC2)c(F)n1 [Example 90, 7-((4-(2-fluoro-6-(methylcarbamoyl)pyridin-3-yl)piperazin-1-yl)methyl)-6-fluoro-2-methyl-2,5-dihydro-4H-pyrazolo[4,3-c]quinolin-4-one]	28.7
CNC(=O)c1ccc(N2CCN(Cc3cc4[nH]c(=O)c5ocnc5c4cc3F)CC2)c(F)n1 [Example 94, 7-((4-(2-fluoro-6-(methylcarbamoyl)pyridin-3-yl)piperazin-1-yl)methyl)-8-fluorooxazolo[5,4-c]quinolin-4(5H)-one]	> 100
CNC(=O)c1ccc(N2CCN(Cc3ccc4c([nH]c(=O)c5ocnc54)c3F)CC2)c(F)n1 [Example 95, 7-((4-(2-fluoro-6-(methylcarbamoyl)pyridin-3-yl)piperazin-1-yl)methyl)-6-fluorooxazolo[5,4-c]quinolin-4(5H)-one]	> 100
CNC(=O)c1ccc(N2CCN(Cc3ccc4c([nH]c(=O)c5c(C)noc54)c3F)CC2)c(F)n1 [Example 96, 7-((4-(2-fluoro-6-(methylcarbamoyl)pyridin-3-yl)piperazin-1-yl)methyl)-3-methyl-6-fluoroisoxazolo[4,5-c]quinolin-4(5H)-one]	36.7
CNC(=O)c1ccc(N2CCN(Cc3ccc4c([nH]c(=O)c5ncn(C)c54)c3F)CC2)c(F)n1 [Example 100, 7-((4-(2-fluoro-6-(methylcarbamoyl)pyridin-3-yl)piperazin-1-yl)methyl)-6-fluoro-1-methyl-1,5-dihydro-4H-imidazo[4,5-c]quinolin-4-one]	> 100
CNC(=O)c1ccc(N2CCN(Cc3ccc4c([nH]c(=O)c5occc54)c3F)CC2)c(C(F)F)n1 [Example 101, 7-((4-(2-(difluoromethyl)-6-(methylcarbamoyl)pyridin-3-yl)piperazin-1-yl)methyl)-6-fluorofuro[2,3-c]quinolin-4(5H)-one]	23
CNC(=O)c1ccc(N2CCN(Cc3ccc4c([nH]c(=O)c5occc54)c3Cl)CC2)c(F)n1 [Example 105, 7-((4-(2-fluoro-6-(methylcarbamoyl)pyridin-3-yl)piperazin-1-yl)methyl)-6-chlorofuro[2,3-c]quinolin-4(5H)-one]	> 100

Now those with a lower IC50, led by results:

IC50 [nM]	SMILES
7.69	CNC(=O)c1ccc(N2CCN(Cc3ccc4c(c3)[nH]c(=O)c3ncsc34)CC2)c(C)n1 [Example 4, 7-((4-(2-methyl-6-(methylcarbamoyl)pyridin-3-yl)piperazin-1-yl)methyl)thiazolo[4,5-c]quinolin-4(5H)-one]
5.22	CNC(=O)c1ccc(N2CCN(Cc3ccc4c(c3)[nH]c(=O)c3cn[nH]c34)CC2)c(C)n1 [Example 7, 7-((4-(2-methyl-6-(methylcarbamoyl)pyridin-3-yl)piperazin-1-yl)methyl)-1,5-dihydro-4H-pyrazolo[4,3-c]quinolin-4-one]
11.3	CNC(=O)c1ccc(N2CCN(Cc3ccc4c(c3)[nH]c(=O)c3c4ccn3C)CC2)c(C)n1 [Example 11, 7-((4-(2-methyl-6-(methylcarbamoyl)pyridin-3-yl)piperazin-1-yl)methyl)-3-methyl-3,5-dihydro-4H-pyrrolo[2,3-c]quinolin-4-one]
1.74	CNC(=O)c1ccc(N2CCN(Cc3ccc4c(c3)[nH]c(=O)c3cc[nH]c34)CC2)c(C)n1 [Example 23, 7-((4-(2-methyl-6-(methylcarbamoyl)pyridin-3-yl)piperazin-1-yl)methyl)-1,5-dihydro-4H-pyrrolo[3,2-c]quinolin-4-one]
1.11	CNC(=O)c1ccc(N2CCN(Cc3ccc4c(c3)[nH]c(=O)c3ccn(C)c34)CC2)c(F)n1 [Example 24, 7-((4-(2-fluoro-6-(methylcarbamoyl)pyridin-3-yl)piperazin-1-yl)methyl)-1-methyl-1,5-dihydro-4H-pyrrolo[3,2-c]quinolin-4-one]
2.13	CNC(=O)c1ccc(N2CCN(Cc3ccc4c([nH]c(=O)c5c(Cl)cnn54)c3F)CC2)c(C)n1 [Example 59, 7-((4-(2-methyl-6-(methylcarbamoyl)pyridin-3-yl)piperazin-1-yl)methyl)-6-fluoro-3-chloro-pyrazolo[1,5-a]quinoxalin-4(5H)-one]
12.3	CNC(=O)c1ccc(N2CCN(Cc3ccc4c([nH]c(=O)n5nccc45)c3F)CC2)c(F)n1 [Example 73, 8-((4-(2-fluoro-6-(methylcarbamoyl)pyridin-3-yl)piperazin-1-yl)methyl)-7-fluoropyrazolo[1,5-c]quinazolin-5(6H)-one]
9.79	CNC(=O)c1ccc(N2CCN(Cc3cc4[nH]c(=O)c5c(C)noc5c4cc3F)CC2)c(F)n1 [Example 97, 7-((4-(2-fluoro-6-(methylcarbamoyl)pyridin-3-yl)piperazin-1-yl)methyl)-3-methyl-8-fluoroisoxazolo[4,5-c]quinolin-4(5H)-one]
17.5	NC(=O)c1ccc(N2CCN(Cc3ccc4c([nH]c(=O)c5occc54)c3F)CC2)c(F)n1 [Example 106, 7-((4-(2-fluoro-6-carbamoylpyridin-3-yl)piperazin-1-yl)methyl)-6-fluorofuro[2,3-c]quinolin-4(5H)-one]
12.9	O=c1[nH]c2c(F)c(CN3CCN(c4ccc(-c5nnc[nH]5)nc4F)CC3)ccc2c2ccoc12 [Example 110, 7-((4-(2-fluoro-6-(4H-1,2,4-triazol-3-yl)pyridin-3-yl)piperazin-1-yl)methyl)-6-fluorofuro[2,3-c]quinolin-4(5H)-one]
2.19	CNC(=O)c1ccc(N2CCN(Cc3ccc4c(c3)[nH]c(=O)c3occc34)CC2)cn1 [Example 113, 7-((4-(6-(methylcarbamoyl)pyridin-3-yl)piperazin-1-yl)methyl)furo[2,3-c]quinolin-4(5H)-one]
1.32	CNC(=O)c1ccc(N2CCN(Cc3ccc4c(c3)[nH]c(=O)c3ccoc34)CC2)c(F)n1 [Example 114, 7-((4-(2-fluoro-6-(methylcarbamoyl)pyridin-3-yl)piperazin-1-yl)methyl)furo[3,2-c]quinolin-4(5H)-one]
7.5	CNC(=O)c1ccc(N2CCN(Cc3ccc4c([nH]c(=O)c5oc(C)cc54)c3F)CC2)c(F)n1 [Example 116, 7-((4-(2-fluoro-6-(methylcarbamoyl)pyridin-3-yl)piperazin-1-yl)methyl)-6-fluoro-2-methylfuro[2,3-c]quinolin-4(5H)-one]
